In patent publication US4128629A, “Extraction-free cortisol assay” (Corning Glass Works, priority 1977, dated 1978):
Values joined by “and” are separate entries in the source; they are usually repeats but may differ in a detail not shown here. Equal entries are not always repeated.

system: anticortisol antibody composite; assay: Cross-reactivity (specificity) of the solid phase cortisol radioimmunoassay; assay type: binding; design: key: ratio of cortisol to cross-reactant amount at 50% displacement; settings: ratio of the cortisol level to the steroid level at fifty percent relative displacement of labeled cortisol from immobilized anti-cortisol antibody
Description: (§1) A lyophilized mixture of the tracer (about 50,000 DPM), 200 μg of ANS, and PBS is reconstituted to a 100 μl solution with water in an identified glass test tube to which is pipetted a […] serum sample having an unknown cortisol concentration. A non-interferring red dye such as Durkees Staff Brand may be included with the tracer solution to indicate that presence of the tracer.
(§2) Then, a 1 ml suspension of the immobilized antibodies (0.20 mg of anti-cortisol antibodies chemically coupled via N-hydroxysuccinimide linkage to silanized glass particles having an average particle size of about 1.7 microns is pipetted into the tube. The tube is vortexed for 2 or 3 seconds, allowing the composite of immobilized antibodies to be suspended. The reaction tube is incubated for about 1 hour at room temperature. The tube is then centrifuged for about 10 minutes at about 1400 to 1600 gravities (g). The relatively high density of the glass support facilitates this separation step. After centrifugation, the supernatant fluid is decanted and it or the composite at the bottom of the tube is counted for radioactivity. Since the amount of radioactivity in disintegrations per minute (DPM) of the initial tracer was known, the amount associated with the composite (that which competed with the unknown cortisol for sites on the composite), provides an indication of the cortisol present, using known correlation techniques.
The cross-reactivity of the anticortisol antibody composite for a substance may be expressed as the ratio of the amount of cortisol required to displace 50% of the labeled antigen from the antibody, to the amount of cross-reacting substance needed to cause a similar displacement.

Structure (SMILES) | Ratio of Cross Reactivity
C[C@]12CCC(=O)C[C@@H]1CC[C@@H]1[C@@H]2CC[C@]2(C)[C@@H](O)CC[C@@H]12 [5α-Dihydrotestosterone] | 0.007
C[C@]12CC[C@H]3[C@@H](CCC4=CC(=O)CC[C@@]43C)[C@@H]1CC[C@@H]2C(=O)CO [11-Desoxycorticosterone] | 0.10
C[C@]12CCC(=O)C=C1CC[C@@H]1[C@@H]2CC[C@@]2(C)[C@H]1CC[C@]2(O)C(=O)CO [11-Desoxycortisol] | 0.11
CC(=O)[C@@]1(O)CC[C@H]2[C@@H]3CCC4=CC(=O)CC[C@]4(C)[C@H]3CC[C@@]21C [17α-Hydroxyprogesterone] | 0.026
C[C@@H](O)[C@H]1CC[C@H]2[C@@H]3CCC4=CC(=O)CC[C@]4(C)[C@H]3CC[C@]12C [20β-Hydroxyprogesterone] | 0.026
C[C@]12CCC(=O)C=C1CC[C@@H]1[C@@H]2CC[C@]2(C)C(=O)CC[C@@H]12 [Androstenedione] | < 0.004
CC(C)CCC[C@@H](C)[C@H]1CC[C@H]2[C@@H]3CC=C4C[C@@H](O)CC[C@]4(C)[C@H]3CC[C@]12C [Cholesterol] | < 0.001
C[C@]12C[C@H](O)[C@H]3[C@@H](CCC4=CC(=O)CC[C@@]43C)[C@@H]1CC[C@@H]2C(=O)CO [Corticosterone] | 0.12
C[C@]12CCC(=O)C=C1CC[C@@H]1[C@@H]2[C@@H](O)C[C@@]2(C)[C@H]1CC[C@]2(O)C(=O)CO [Cortisol] | 1.00
C[C@]12CCC(=O)C=C1CC[C@@H]1[C@@H]2C(=O)C[C@@]2(C)[C@H]1CC[C@]2(O)C(=O)CO [Cortisone] | 0.008
C[C@]12CC[C@@H]3c4ccc(O)cc4CC[C@H]3[C@@H]1CC[C@@H]2O [Estradiol-17β] | < 0.001
C[C@]12CC[C@@H]3c4ccc(O)cc4CC[C@H]3[C@@H]1C[C@@H](O)[C@@H]2O [Estriol] | < 0.001
C[C@]12CC[C@@H]3c4ccc(O)cc4CC[C@H]3[C@@H]1CCC2=O [Estrone] | < 0.001
C[C@]12C=CC(=O)C=C1CC[C@@H]1[C@@H]2[C@@H](O)C[C@@]2(C)[C@H]1CC[C@]2(O)C(=O)CO [Prednisolone] | 0.10
C[C@]12C=CC(=O)C=C1CC[C@@H]1[C@@H]2C(=O)C[C@@]2(C)[C@H]1CC[C@]2(O)C(=O)CO [Prednisone] | 0.004
CC(=O)[C@H]1CC[C@H]2[C@@H]3CCC4=CC(=O)CC[C@]4(C)[C@H]3CC[C@]12C [Progesterone] | 0.041
C[C@]12CC[C@H]3[C@@H](CCC4=CC(=O)CC[C@@]43C)[C@@H]1CC[C@@H]2O [Testosterone] | 0.002
C[C@]12CC[C@@H](O)C[C@H]1CC[C@@H]1[C@@H]2[C@@H](O)C[C@@]2(C)[C@H]1CC[C@]2(O)C(=O)CO [Tetrahydrocortisol] | < 0.001

target: T1, transcortin (TC) (Homo sapiens, UniProt P08185); assay: Cortisol released from serum sample (release from TC) by ANS and pH, compared with heat denaturation; settings: typical patient serum samples; one value per patient sample; compared with heating at 100° C. for about 10 min
T1 sequence (P08185 23-405): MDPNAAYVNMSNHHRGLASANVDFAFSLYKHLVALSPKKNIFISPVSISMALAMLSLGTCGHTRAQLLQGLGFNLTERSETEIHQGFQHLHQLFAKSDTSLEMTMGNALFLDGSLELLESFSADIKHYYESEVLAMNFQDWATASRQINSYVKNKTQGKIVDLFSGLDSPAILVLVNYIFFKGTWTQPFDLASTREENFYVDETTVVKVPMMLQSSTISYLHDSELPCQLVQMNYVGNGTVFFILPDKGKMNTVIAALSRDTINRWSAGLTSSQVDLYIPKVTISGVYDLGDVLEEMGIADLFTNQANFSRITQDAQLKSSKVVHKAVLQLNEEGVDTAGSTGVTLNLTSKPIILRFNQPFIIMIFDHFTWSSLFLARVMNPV
Description: as §1
as §2, with “Since the amount of radioactivity in disintegrations per minute (DPM) of the initial tracer was known, the amount associated with the composite (that which competed with the unknown cortisol for sites on the composite), provides an indication of the cortisol present, using known correlation techniques.” left out

Structure (SMILES) | Cortisol Released
O=S(=O)(O)c1cccc2cccc(Nc3ccccc3)c12 [ANS, 8-anilino-1-naphthalene sulfonic acid] | 59 ng/mL and 90 ng/mL and 270 ng/mL and 465 ng/mL
